The values below come from PMC7915724 (2021).

Holding throughout (experiment): SPR
(Surface plasmon resonance follows binding to a sensor surface in real time, without labels.)

Assay [1] deals with biotin-Py24 (VEGF i-motif) (DNA, i motif) GACCCCGCCCCCGGCCCGCCCCGG
To be noted: 100 mM KCl; 20 mM MES pH 5.5, 0.05% Tween-20, 25 °C; tested up to 50 μM.

In assay [2] the test system is biotin-Hairpin (duplex DNA) (DNA, hairpin, HEG (hexaethylene glycol) linker between 10 and 11) TATAGCTATATATAGCTATA
Particulars: 100 mM KCl; 20 mM Tris-HCl pH 7.4, 25 °C; tested up to 50 μM.

In assay [3] the test system is biotin-Pu24 (VEGF G-quadruplex) (DNA, G4) CCGGGGCGGGCCGGGGGCGGGGTC
Particulars: 100 mM KCl; 20 mM Tris-HCl pH 7.4, 25 °C; tested up to 50 μM.

In assay [4] the test system is biotin-Py24 (VEGF i-motif) (DNA, i motif) GACCCCGCCCCCGGCCCGCCCCGG
Particulars: 100 mM KCl; 20 mM MES pH 5.5, 0.05% Tween-20, 25 °C.

Usually KD stands for a measure of binding affinity in units of concentration.

The molecule `CC(=O)OC[C@H]1O[C@@H](n2cc(CNC(=O)[C@]34CCC(C)(C)C[C@H]3C3=CC[C@@H]5[C@@]6(C)CC[C@H](O)C(C)(C)[C@@H]6CC[C@@]5(C)[C@]3(C)CC4)nn2)[C@H](OC(C)=O)[C@@H](OC(C)=O)[C@@H]1OC(C)=O` displayed a KD in assay [1] of over 50 µM.
In the case of `CC1(C)CC[C@]2(C(=O)N3CCN(C(=O)Cn4cnc5[nH]c(=O)[nH]c(=O)c54)CC3)CC[C@]3(C)C(=CC[C@@H]4[C@@]5(C)CC[C@H](O)C(C)(C)[C@@H]5CC[C@]43C)[C@@H]2C1`, the KD in assay [1], in assay [2] and in assay [3] was over 50 µM throughout.
With `CC1(C)CC[C@]2(C(=O)N3CCN(c4ccc(F)cc4F)CC3)CC[C@]3(C)C(=CC[C@@H]4[C@@]5(C)CC[C@H](O)C(C)(C)[C@@H]5CC[C@]43C)[C@@H]2C1`, the dissociation constant KD in assay [1], in assay [2] and in assay [3] was over 50 µM throughout.
Turning to `CC1(C)CC[C@]2(C(=O)N3CCN(c4cccc(C(F)(F)F)c4)CC3)CC[C@]3(C)C(=CC[C@@H]4[C@@]5(C)CC[C@H](O)C(C)(C)[C@@H]5CC[C@]43C)[C@@H]2C1`, the KD in assay [1], in assay [2] and in assay [3] was over 50 µM in each case.
In the case of `CC1(C)CC[C@]2(C(=O)N3CCN(c4ccccn4)CC3)CC[C@]3(C)C(=CC[C@@H]4[C@@]5(C)CC[C@H](O)C(C)(C)[C@@H]5CC[C@]43C)[C@@H]2C1`, the KD in assay [1], in assay [2] and in assay [3] was over 50 µM throughout.
Consider `CC1(C)CC[C@]2(C(=O)N3CCN(c4ncccn4)CC3)CC[C@]3(C)C(=CC[C@@H]4[C@@]5(C)CC[C@H](O)C(C)(C)[C@@H]5CC[C@]43C)[C@@H]2C1`, for which the KD in assay [1], in assay [2] and in assay [3] was over 50 µM throughout.
As for `CC1(C)CC[C@]2(C(=O)NCCNC(=O)c3ccccc3Nc3ccccc3)CC[C@]3(C)C(=CC[C@@H]4[C@@]5(C)CC[C@H](O)C(C)(C)[C@@H]5CC[C@]43C)[C@@H]2C1`, the dissociation constant KD in assay [1], in assay [2] and in assay [3] was over 50 µM each time.
`CC1(C)CC[C@]2(C(=O)NCc3cn(CCCN4CCCC4)nn3)CC[C@]3(C)C(=CC[C@@H]4[C@@]5(C)CC[C@H](O)C(C)(C)[C@@H]5CC[C@]43C)[C@@H]2C1` came in with a dissociation constant KD in assay [1] of over 50 µM.
On the same count and under the same terms, the figure for `CC1(C)CC[C@]2(C(=O)NCc3cn(CCCN4CCOCC4)nn3)CC[C@]3(C)C(=CC[C@@H]4[C@@]5(C)CC[C@H](O)C(C)(C)[C@@H]5CC[C@]43C)[C@@H]2C1` is over 50 µM.
For the molecule `CC1(C)CC[C@]2(C(=O)NCc3cn(CCCc4ccccc4)nn3)CC[C@]3(C)C(=CC[C@@H]4[C@@]5(C)CC[C@H](O)C(C)(C)[C@@H]5CC[C@]43C)[C@@H]2C1`, the KD in assay [1], in assay [2] and in assay [3] was over 50 µM in each case.
In turn, `CC1(C)CC[C@]2(C(=O)NCc3cn(CCN4CCCC4)nn3)CC[C@]3(C)C(=CC[C@@H]4[C@@]5(C)CC[C@H](O)C(C)(C)[C@@H]5CC[C@]43C)[C@@H]2C1` registered a KD in assay [1] of over 50 µM.
The same measure, in the same setting: as for `CC1(C)CC[C@]2(C(=O)NCc3cn(CCN4CCOCC4)nn3)CC[C@]3(C)C(=CC[C@@H]4[C@@]5(C)CC[C@H](O)C(C)(C)[C@@H]5CC[C@]43C)[C@@H]2C1`, the figure is over 50 µM.
Same read-out and setting: the figure for `CC1(C)CC[C@]2(C(=O)NCc3cn(Cc4ccc(C(F)(F)F)cc4)nn3)CC[C@]3(C)C(=CC[C@@H]4[C@@]5(C)CC[C@H](O)C(C)(C)[C@@H]5CC[C@]43C)[C@@H]2C1` is over 50 µM.
Turning to `CC1(C)CC[C@]2(C(=O)NCc3cn(Cc4ccccc4)nn3)CC[C@]3(C)C(=CC[C@@H]4[C@@]5(C)CC[C@H](O)C(C)(C)[C@@H]5CC[C@]43C)[C@@H]2C1`, the equilibrium dissociation constant (KD) in assay [1], in assay [2] and in assay [3] was over 50 µM in each case.
Turning to `CC1(C)CC[C@]2(C(=O)NCc3cn(Cc4nc5ccccc5[nH]4)nn3)CC[C@]3(C)C(=CC[C@@H]4[C@@]5(C)CC[C@H](O)C(C)(C)[C@@H]5CC[C@]43C)[C@@H]2C1`, the figures for the equilibrium dissociation constant (KD) in assay [4], in assay [2] and in assay [3] were 10.6 µM, over 50 µM and over 50 µM, respectively.
Turning to `CC1(C)CC[C@]2(C(=O)NCc3cn([C@@H]4O[C@H](CO)[C@@H](O)[C@H](O)[C@H]4O)nn3)CC[C@]3(C)C(=CC[C@@H]4[C@@]5(C)CC[C@H](O)C(C)(C)[C@@H]5CC[C@]43C)[C@@H]2C1`, the dissociation constant KD is 12.0 µM in assay [4], over 50 µM in assay [2] and over 50 µM in assay [3].
Regarding `CN(C)CCn1cc(CNC(=O)[C@]23CCC(C)(C)C[C@H]2C2=CC[C@@H]4[C@@]5(C)CC[C@H](O)C(C)(C)[C@@H]5CC[C@@]4(C)[C@]2(C)CC3)nn1`, the dissociation constant KD in assay [1] and in assay [3] was over 50 µM throughout.
Molecule `COC(=O)[C@]12CCC(C)(C)C[C@H]1C1=CC[C@@H]3[C@@]4(C)C=C(C(=O)NCCCN5CCCC5)C(=O)C(C)(C)[C@@H]4CC[C@@]3(C)[C@]1(C)CC2` had an equilibrium dissociation constant (KD) in assay [1] of over 50 µM.
On the same count and under the same terms, the figure for `COC(=O)[C@]12CCC(C)(C)C[C@H]1C1=CC[C@@H]3[C@@]4(C)C=C(C(=O)NCCCc5ccccc5)C(=O)C(C)(C)[C@@H]4CC[C@@]3(C)[C@]1(C)CC2` is over 50 µM; for `COC(=O)[C@]12CCC(C)(C)C[C@H]1C1=CC[C@@H]3[C@@]4(C)C=C(C(=O)NCCc5ccc(C(F)(F)F)cc5)C(=O)C(C)(C)[C@@H]4CC[C@@]3(C)[C@]1(C)CC2` it is over 50 µM; for `COC(=O)[C@]12CCC(C)(C)C[C@H]1[C@H]1C(=O)C[C@@H]3[C@@](C)(CCC(=O)N4CCN(c5ccc(F)cc5F)CC4)[C@H](C(C)(C)O)CC[C@@]3(C)[C@]1(C)CC2` it is over 50 µM.
With `COC(=O)[C@]12CCC(C)(C)C[C@H]1[C@H]1C(=O)C[C@@H]3[C@@](C)(CCC(=O)NCCCN4CCOCC4)[C@H](C(C)(C)O)CC[C@@]3(C)[C@]1(C)CC2`, the KD was 31.3 µM in assay [4], over 50 µM in assay [2] and over 50 µM in assay [3].
Regarding `COC(=O)[C@]12CCC(C)(C)C[C@H]1[C@H]1C(=O)C[C@@H]3[C@@](C)(CCC(=O)NCCc4cccs4)[C@H](C(C)(C)O)CC[C@@]3(C)[C@]1(C)CC2`, in assay [1], the KD was over 50 µM.
On the same count and under the same terms, as for `COC(=O)[C@]12CCC(C)(C)C[C@H]1[C@H]1C(=O)C[C@@H]3[C@@](C)(CCC(=O)Nc4ccc(F)cc4)[C@H](C(C)(C)O)CC[C@@]3(C)[C@]1(C)CC2`, the figure is over 50 µM.
`COC(=O)[C@]12CCC(C)(C)C[C@H]1[C@H]1C(=O)C[C@@H]3[C@@](C)(CCC(=O)Nc4ccc(OC(F)(F)F)cc4)[C@H](C(C)(C)O)CC[C@@]3(C)[C@]1(C)CC2` returned a KD in assay [1] of over 50 µM.
The same measure, in the same setting: the figure for `COC(=O)[C@]12CCC(C)(C)C[C@H]1[C@H]1C(=O)C[C@@H]3[C@@](C)(CCC(=O)Nc4ccc(OC)cc4)[C@H](C(C)(C)O)CC[C@@]3(C)[C@]1(C)CC2` is over 50 µM.
Consider `COc1ccccc1N1CCN(C(=O)[C@]23CCC(C)(C)C[C@H]2C2=CC[C@@H]4[C@@]5(C)CC[C@H](O)C(C)(C)[C@@H]5CC[C@@]4(C)[C@]2(C)CC3)CC1`, for which the equilibrium dissociation constant (KD) in assay [1], in assay [2] and in assay [3] was over 50 µM in each case.
For the molecule `Cc1cn(CC(=O)N2CCN(C(=O)[C@]34CCC(C)(C)C[C@H]3C3=CC[C@@H]5[C@@]6(C)CC[C@H](O)C(C)(C)[C@@H]6CC[C@@]5(C)[C@]3(C)CC4)CC2)c(=O)[nH]c1=O`, the KD in assay [1], in assay [2] and in assay [3] was over 50 µM in each case.
